Data reported in patent US20010051167A1, “USE OF 17-ALPHA-ESTRADIOL FOR THE TREATMENT OF AGED OR SUNDAMAGED SKIN AND/OR SKIN ATROPHY” (priority 1997, published 2001).

How the values were obtained:
[1] = tested on: UV-photodamaged dorsal trunk skin of albino hairless mice (Skh-1); assay: Dermal repair zone depth in UV-photodamaged hairless mouse skin after topical treatment; format: in vivo
Excerpt: In one method, a deficit in connective tissue synthesis is induced by long-term exposure of mouse skin to ultraviolet (UV) radiation. […] The repair can be visualized as a region of new connective tissue which forms as a subepidermal band in the papillary dermis after topical retinoid treatment (Kligman LH, Chapter 10: Animal Models of Photodamage and Its Treatment, pp. 136-156, In: Photodamage, edited by B. A. Gilchrest, 1995, Blackwell Science, Cambridge, Mass.). The old malformed elastotic tissue, produced during UV exposure, is compressed by the retinoid-induced new connective tissue zone.
Connective tissue photodamage was induced in albino hairless mice (Skh-1) (six to eight weeks old) by exposure of dorsal trunk skin to UV from FS40 fluorescent tubes, three days per week (Monday, Wednesday, Friday) for ten weeks. The UV dose started with one minimal erythemal dose (MED) and was increased gradually to 4.5 MEDs by week 5 and then continued at 4.5 MEDs for five more weeks. At the beginning of week 11, mice were treated topically with 0.1 mL test material on the dorsal trunk skin, three times per week (Monday, Wednesday, Friday) for 6 to 10 weeks. At the end of treatment, dorsal skin was excised and placed in 10% buffered formalin. The specimens were embedded, sectioned and stained with Luna's aldehyde fuchsin for elastic fibers. The dermal repair zone, defined as the area from the epidermal-dermal junction to the top of the compressed elastotic material, was quantified by measuring the depth of the zones with an image analyzer. […]

[2] = tested on: epidermis of albino hairless mice (Skh-1); assay: Thickness of the epidermis after 10 weeks of topical treatment; format: in vivo, mouse
[3] = tested on: skin of albino hairless mice (Skh-1); assay: Estrogen-induced thickening of the skin (double skin-fold thickness); format: in vivo, mouse; conditions: Example 4, 3 days of topical treatment
Description: In the second method, topical estrogens increase the thickness of the entire skin by enhancing its water content. This is due to estrogen-stimulated increases in hyaluronic acid, which is a biomolecule that has an avid water binding capacity (Grosman et al. Acta Pharmacol. Toxicol., 1971, Vol. 30, pp. 458-464). Estrogen-induced thickening of the skin was assessed in albino hairless mice (Skh-1). The skin is topically treated for 3 days with 0.1 mL test material. The next day after the last dose, double skin-fold thickness is measured with an engineer's vernier calipers. This example compares the effects of 17-α-Estradiol and 17-β-Estradiol on skin thickening after 3 days of topical treatment.

[4] = tested on: markers of reproductive function; conditions: humans; administered subcutaneously; cited from earlier work
[5] = Example 2, topical dose 0.1%, 10 Weeks
[6] = Example 3, topical dose 0.01%, 10 weeks

C[C@]12CC[C@@H]3c4ccc(O)cc4CC[C@H]3[C@@H]1CC[C@@H]2O [17-β-estradiol]
Repair Zone Depth (μm) ± SE ([1]; Example 1, topical dose 0.01%, 10 weeks, 0.1 mL three times per week): 57.4 ± 6.1 μm | Repair Zone Depth (μm) ± SE ([1]; Example 2, topical dose 0.1%, 6 Weeks): 46.3 ± 0.9 μm | Repair Zone Depth (μm) ± SE [1, 5]: 38.7 ± 2.5 μm | Repair Zone Depth (μm) ± SE ([1]; Example 3, topical dose 0.005%, 10 weeks): 45.2 ± 3.1 μm | Repair Zone Depth (μm) ± SE [1, 6]: 53.4 ± 2.1 μm | Repair Zone Depth (μm) ± SE ([1]; Example 3, topical dose 0.1%, 10 weeks): 68.2 ± 6.0 μm | Epidermal Thickness (μm) ± SE ([2]; Example 5, topical dose 0.005%): 32.0 ± 1.2 μm | Epidermal Thickness (μm) ± SE ([2]; Example 5, topical dose 0.01%): 28.3 ± 1.8 μm | Epidermal Thickness (μm) ± SE ([2]; Example 5, topical dose 0.1%): 48.1 ± 2.9 μm | Skin-Fold Thickness (mm) ± SE ([3]; topical dose 0.001%): 1.25 ± 0.08 mm | Skin-Fold Thickness (mm) ± SE ([3]; topical dose 0.01%): 1.62 ± 0.11 mm | Skin-Fold Thickness (mm) ± SE ([3]; topical dose 0.1%): 1.5 ± 0.13 mm

CC1=C(/C=C/C(C)=C/C=C/C(C)=C/C(=O)O)C(C)(C)CCC1 [All-trans-retinoic acid]
Repair Zone Depth (μm) ± SE ([1]; Example 1, topical dose 0.03%, 10 weeks, 0.1 mL three times per week): 72.0 ± 2.6 μm | Repair Zone Depth (μm) ± SE ([1]; Example 2, topical dose 0.03%, 6 Weeks): 44.5 ± 3.9 μm | Repair Zone Depth (μm) ± SE ([1]; Example 2, topical dose 0.03%, 10 Weeks): 59.0 ± 2.3 μm | Repair Zone Depth (μm) ± SE ([1]; Example 3, topical dose 0.03%, 10 weeks): 72.0 ± 3.3 μm | Epidermal Thickness (μm) ± SE ([2]; Example 5, topical dose 0.03%): 52.8 ± 3.6 μm

C[C@]12CCC3c4ccc(O)cc4CCC3C1CC[C@H]2O (stereo partly drawn) [17-α-estradiol]
biological activity on markers of reproductive function [4]: lacked biological activity | Repair Zone Depth (μm) ± SE ([1]; Example 1, topical dose 0.50%, 10 weeks, 0.1 mL three times per week): 71.8 ± 3.0 μm | Repair Zone Depth (μm) ± SE ([1]; Example 2, topical dose 0.05%, 10 Weeks): 36.8 ± 2.4 μm | Repair Zone Depth (μm) ± SE [1, 5]: 44.3 ± 2.3 μm | Repair Zone Depth (μm) ± SE ([1]; Example 2, topical dose 0.5%, 6 Weeks): 44.6 ± 2.7 μm | Repair Zone Depth (μm) ± SE ([1]; Example 2, topical dose 0.5%, 10 Weeks): 51.6 ± 3.5 μm | Repair Zone Depth (μm) ± SE [1, 6]: 49.4 ± 3.7 μm | Repair Zone Depth (μm) ± SE ([1]; Example 3, topical dose 0.05%, 10 weeks): 34.3 ± 3.7 μm | Repair Zone Depth (μm) ± SE ([1]; Example 3, topical dose 0.5%, 10 weeks): 62.4 ± 4.2 μm | Epidermal Thickness (μm) ± SE ([2]; Example 5, topical dose 0.05%): 29.3 ± 0.3 μm | Epidermal Thickness (μm) ± SE ([2]; Example 5, topical dose 0.1%): 37.3 ± 1.8 μm | Epidermal Thickness (μm) ± SE ([2]; Example 5, topical dose 0.5%): 42.9 ± 3.8 μm | Skin-Fold Thickness (mm) ± SE ([3]; topical dose 0.01%): 1.16 ± 0.07 mm | Skin-Fold Thickness (mm) ± SE ([3]; topical dose 0.1%): 1.43 ± 0.06 mm | Skin-Fold Thickness (mm) ± SE ([3]; topical dose 0.5%): 1.52 ± 0.14 mm
